# In PubChem BioAssay (NCI):
#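 Tested at 5 concentrations; 48 h exposure; 96-well plates; endpoints linearly interpolated, else capped at highest concentration. At the GI50, growth is halved. TGI: concentration producing complete growth inhibition.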
# Key:
# Assay in all cases: NCI tumour cell line growth inhibition, 48 h
# [1] = test system: A549 NSCLC
# [2] = test system: PC-3 prostate
# [3] = test system: MDA-MB-435
# [4] = test system: HS 578T breast
# [5] = test system: OVCAR-8 ovarian
# [6] = test system: SF-539 CNS
# [7] = test system: U251 CNS
# [8] = test system: SF-268 CNS
# [9] = test system: SK-OV-3 ovarian
# [10] = test system: SNB-75 CNS
# [11] = test system: MALME-3M melanoma
# [12] = test system: CAKI-1 renal
# [13] = test system: T-47D breast
# [14] = test system: BT-549 breast
# [15] = test system: HCT-15 colon
# [16] = test system: 786-0 renal
# [17] = test system: HCT-116 colon
# [18] = test system: A498 renal
# [19] = test system: RPMI-8226 leukemia
# [20] = test system: SK-MEL-28 melanoma
# [21] = test system: DU-145 prostate
# [22] = test system: KM12 colon
# [23] = test system: NCI-H460 lung
# [24] = test system: NCI-H23 lung
# [25] = test system: HOP-92 NSCLC
# [26] = test system: NCI-H522 lung
# [27] = test system: ACHN renal
# [28] = test system: IGROV1 ovarian
# [29] = test system: NCI/ADR-RES ovarian
# [30] = test system: LOX IMVI melanoma
# [31] = test system: SN12C renal
# [32] = test system: UO-31 renal
# [33] = test system: OVCAR-5 ovarian
# [34] = test system: M14 melanoma
# [35] = test system: UACC-257 melanoma
# [36] = test system: HL-60(TB) leukemia
# [37] = test system: COLO 205 colon
# [38] = test system: OVCAR-3 ovarian
# [39] = test system: HOP-62 NSCLC
# [40] = test system: SK-MEL-2 melanoma
# [41] = test system: K-562 leukemia
# [42] = test system: TK-10 renal
# [43] = test system: SNB-19 CNS
# [44] = test system: EKVX NSCLC
# [45] = test system: SF-295 CNS
# [46] = test system: MDA-MB-231 breast
# [47] = test system: HT29 colon
# [48] = test system: NCI-H226 lung
# [49] = test system: SK-MEL-5 melanoma
# [50] = test system: UACC-62 melanoma
# [51] = test system: SW-620 colon
# [52] = test system: OVCAR-4 ovarian
# [53] = test system: SR leukemia
# [54] = test system: MCF7 breast
# [55] = test system: CCRF-CEM leukemia
# [56] = test system: MOLT-4 leukemia
smiles,measurement,setting,value
COc1cc2nc(-c3cccs3)nc(N3CCN(c4ccccc4)CC3)c2cc1OC,TGI,[1],> 100 µM
same,TGI,[2],> 100 µM
same,TGI,[3],> 100 µM
same,TGI,[4],> 100 µM
same,TGI,[5],> 100 µM
same,TGI,[6],> 100 µM
same,TGI,[7],> 100 µM
same,TGI,[8],> 100 µM
same,TGI,[9],> 100 µM
same,TGI,[10],> 100 µM
same,TGI,[11],> 100 µM
same,TGI,[12],> 100 µM
same,TGI,[13],> 100 µM
same,TGI,[14],> 100 µM
same,TGI,[15],> 100 µM
same,TGI,[16],> 100 µM
same,TGI,[17],> 100 µM
same,TGI,[18],> 100 µM
same,TGI,[19],> 100 µM
same,TGI,[20],> 100 µM
same,TGI,[21],> 100 µM
same,TGI,[22],> 100 µM
same,TGI,[23],> 100 µM
same,TGI,[24],> 100 µM
same,TGI,[25],> 100 µM
same,TGI,[26],> 100 µM
same,TGI,[27],> 100 µM
same,TGI,[28],> 100 µM
same,TGI,[29],> 100 µM
same,TGI,[30],> 100 µM
same,TGI,[31],> 100 µM
same,TGI,[32],> 100 µM
same,TGI,[33],> 100 µM
same,TGI,[34],> 100 µM
same,TGI,[35],> 100 µM
same,TGI,[36],> 100 µM
same,TGI,[37],> 100 µM
same,TGI,[38],> 100 µM
same,TGI,[39],> 100 µM
same,TGI,[40],> 100 µM
same,TGI,[41],> 100 µM
same,TGI,[42],> 100 µM
same,TGI,[43],> 100 µM
same,TGI,[44],> 100 µM
same,TGI,[45],> 100 µM
same,TGI,[46],> 100 µM
same,TGI,[47],> 100 µM
same,TGI,[48],> 100 µM
same,TGI,[49],> 100 µM
same,TGI,[50],> 100 µM
same,TGI,[51],> 100 µM
same,TGI,[52],> 100 µM
same,TGI,[53],> 100 µM
same,TGI,[54],> 100 µM
O=C(Nc1ccc(Cl)c(Cl)c1)c1ccc(NC2=C(Cl)C(=O)N(Cc3ccccc3)C2=O)cc1,GI50,[1],11.9 µM
same,TGI,[1],27.3 µM
same,GI50,[2],3.55 µM
same,TGI,[2],13.4 µM
same,GI50,[3],5.62 µM
same,TGI,[3],19.5 µM
same,GI50,[4],5.37 µM
same,TGI,[4],27 µM
same,GI50,[5],2.6 µM
same,TGI,[5],4.41 µM
same,GI50,[55],2.3 µM
same,TGI,[55],7.79 µM
same,GI50,[6],16 µM
same,TGI,[6],30.1 µM
same,GI50,[8],8.26 µM
same,TGI,[8],24 µM
same,GI50,[9],21.5 µM
same,TGI,[9],44 µM
same,GI50,[10],16.1 µM
same,TGI,[10],56.4 µM
same,GI50,[11],11.2 µM
same,TGI,[11],24.8 µM
same,GI50,[12],3 µM
same,TGI,[12],12.6 µM
same,GI50,[13],31.6 µM
same,TGI,[13],92 µM
same,GI50,[14],3.29 µM
same,TGI,[14],10.6 µM
same,GI50,[16],7.74 µM
same,TGI,[16],20.1 µM
same,GI50,[17],1.94 µM
same,TGI,[17],4.25 µM
same,GI50,[18],17.6 µM
same,TGI,[18],36.8 µM
same,GI50,[19],2.02 µM
same,TGI,[19],4.29 µM
same,GI50,[20],21.2 µM
same,TGI,[20],63.5 µM
same,GI50,[21],4.32 µM
same,TGI,[21],16.6 µM
same,GI50,[22],11.5 µM
same,TGI,[22],27.2 µM
same,GI50,[23],9.32 µM
same,TGI,[23],22.8 µM
same,GI50,[24],14.2 µM
same,TGI,[24],27.4 µM
same,GI50,[26],13.1 µM
same,TGI,[26],27.2 µM
same,GI50,[28],2.71 µM
same,TGI,[28],8.14 µM
same,GI50,[29],5.04 µM
same,TGI,[29],17 µM
same,GI50,[31],10.9 µM
same,TGI,[31],25.9 µM
same,GI50,[32],13.1 µM
same,TGI,[32],25.8 µM
same,GI50,[33],2.95 µM
same,TGI,[33],8.91 µM
same,GI50,[34],17.1 µM
same,TGI,[34],32.9 µM
same,GI50,[35],3.67 µM
same,TGI,[35],11.9 µM
same,GI50,[36],2.82 µM
same,TGI,[36],7.68 µM
same,GI50,[37],20 µM
same,TGI,[37],66.6 µM
same,GI50,[38],2.14 µM
same,TGI,[38],4.86 µM
same,GI50,[39],17.4 µM
same,TGI,[39],31.3 µM
same,GI50,[40],10.1 µM
same,TGI,[40],22.1 µM
same,GI50,[41],2.34 µM
same,TGI,[41],5.93 µM
same,GI50,[42],18.8 µM
same,TGI,[42],39.2 µM
same,GI50,[43],52.9 µM
same,TGI,[43],> 100 µM
same,GI50,[44],23.3 µM
same,TGI,[44],48.6 µM
same,GI50,[45],13.6 µM
same,TGI,[45],34.7 µM
same,GI50,[46],3.06 µM
same,TGI,[46],9.41 µM
same,GI50,[47],16.5 µM
same,TGI,[47],> 100 µM
same,GI50,[48],7.33 µM
same,TGI,[48],20.8 µM
same,GI50,[49],5.02 µM
same,TGI,[49],17.9 µM
same,GI50,[50],4.93 µM
same,TGI,[50],17.7 µM
same,GI50,[56],2.18 µM
same,TGI,[56],5.02 µM
same,GI50,[52],17.2 µM
same,TGI,[52],42.1 µM
same,GI50,[53],2.23 µM
same,TGI,[53],5.27 µM
same,GI50,[54],2.1 µM
same,TGI,[54],4.82 µM
